Numbered stars: 1 amine (or outer) side, 2 acyl side, 3 side chain; on linkers, the order of the positions; unused ones are H or OH. Bridge positions count the residues as written; N and C are the ends. Square brackets hold non-standard residues; d marks the D form. Peptide text beside a SMILES is read from it. I, II: the chains in the order shown. * marks the point of attachment. C16 diacid = O=C(O)CCCCCCCCCCCCCCC(=O)*; 2Nal = N[C@@H](Cc1ccc2ccccc2c1)C(=O)O; dNMeOrn = CN[C@H](CCCN)C(=O)O; Suc = O=C(CCC(=O)[*:2])[*:1]

Sequence of human CXCR4 (P61073 whole entry): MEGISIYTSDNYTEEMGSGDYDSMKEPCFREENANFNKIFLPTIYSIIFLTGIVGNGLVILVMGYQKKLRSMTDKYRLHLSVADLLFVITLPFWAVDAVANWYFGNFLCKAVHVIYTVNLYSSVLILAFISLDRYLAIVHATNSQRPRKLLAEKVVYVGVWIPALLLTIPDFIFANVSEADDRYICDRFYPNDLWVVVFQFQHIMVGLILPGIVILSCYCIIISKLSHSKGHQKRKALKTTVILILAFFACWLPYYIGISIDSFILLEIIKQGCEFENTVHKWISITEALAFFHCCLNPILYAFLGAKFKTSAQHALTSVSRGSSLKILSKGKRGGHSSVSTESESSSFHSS

For the first assay, the target named is human CXCR4 (Homo sapiens, UniProt P61073). Description: Competitive receptor binding assay on Jurkat cells with 125I-CPCR4 as tracer. To be noted: Table 1, Nα-monomethylated cyclic pentapeptides; read-out: IC50. Details: Jurkat cells that endogenously express the CXCR4 receptor; endogenous in cells; host or cells: Jurkat cells. The procedure:
For receptor binding assays cells were resuspended in PBS/0.2% BSA. A total of 200 μl of the suspension containing 400,000 Jurkat cells were incubated with 25 μl of the tracer solution (containing 3.1 kBq, approx. 0.1 nM) and 25 μl of the diluent or the competitor at different concentrations. […] After shaking for 2 h at room temperature, the incubation was terminated by centrifugation at 1300 rpm for 5 min. Cell pellets were washed once with cold PBS followed by a second centrifugation step. Cell bound radioactivity was determined by using a gamma counter. Experiments were repeated 2-3 times in triplicates. IC50 values of the compounds were calculated by nonlinear regression using GraphPad Prism (GraphPad Prism 4.0 Software, Inc., San Diego, Calif., USA). Each data point is the average of three determinations.
For `CN1C(=O)[C@H](CCCNC(=N)N)NC(=O)[C@@H](Cc2ccc(O)cc2)NC(=O)CNC(=O)[C@H](Cc2ccc3ccccc3c2)NC(=O)[C@@H]1CCCNC(=N)N` [OD3, cyc[D-Tyr-Arg-(Me)Arg-Nal-Gly]], the IC50 (usually the midpoint of a concentration-inhibition curve) was 31 nM. On the same count and under the same terms, the value for `CN1C(=O)[C@@H](Cc2ccc(O)cc2)NC(=O)CNC(=O)[C@H](Cc2ccc3ccccc3c2)NC(=O)[C@H](CCCNC(=N)N)NC(=O)[C@@H]1CCCNC(=N)N` [OD1, cyc[D-Tyr-(Me)Arg-Arg-Nal-Gly]] was 23 nM.

Staying with this assay, now noted: Table 4, Orn-Nδ and/or Orn-Nα-modified pentapeptides; read-out: IC50.
As to `N=C(N)NCCC[C@@H]1NC(=O)[C@H](CCCNCc2cccc3ccccc23)NC(=O)[C@@H](Cc2ccc(O)cc2)NC(=O)CNC(=O)[C@H](Cc2ccc3ccccc3c2)NC1=O` [cyc[D-Tyr-Orn(N1)-Arg-Nal-Gly]] (HELM PEPTIDE1{[dY].[O=C([C@H](CCCNCc1cccc2ccccc12)N[*:1])[*:2]].R.[O=C([C@H](Cc1ccc2ccccc2c1)N[*:1])[*:2]].G}$PEPTIDE1,PEPTIDE1,1:R1-5:R2$$$V2.0), the IC50 is 40 ± 3 nM.

`N=C(N)NCCC[C@@H]1NC(=O)[C@H](CCCNCc2ccc3ccccc3c2)NC(=O)[C@@H](Cc2ccc(O)cc2)NC(=O)CNC(=O)[C@H](Cc2ccc3ccccc3c2)NC1=O` [cyc[D-Tyr-Orn(N2)-Arg-Nal-Gly]] (HELM PEPTIDE1{[dY].[O=C([C@H](CCCNCc1ccc2ccccc2c1)N[*:1])[*:2]].R.[O=C([C@H](Cc1ccc2ccccc2c1)N[*:1])[*:2]].G}$PEPTIDE1,PEPTIDE1,1:R1-5:R2$$$V2.0): the IC50 turned out to be 49 ± 1 nM. `N=C(N)NCCC[C@@H]1NC(=O)[C@H](CCCN(Cc2ccccc2)C(=O)c2ccc(F)cc2)NC(=O)[C@@H](Cc2ccc(O)cc2)NC(=O)CNC(=O)[C@H](Cc2ccc3ccccc3c2)NC1=O` [cyc[D-Tyr-Orn(Bz,FB)-Arg-Nal-Gly]] (HELM PEPTIDE1{[O=C([C@H](Cc1ccc2ccccc2c1)N[*:1])[*:2]].G.[dY].[O=C(c1ccc(F)cc1)N(CCC[C@H](N[*:1])C(=O)[*:2])Cc1ccccc1].R}$PEPTIDE1,PEPTIDE1,1:R1-5:R2$$$V2.0): the IC50 amounted to 100 nM.

The assay is the same for the next values; noted with them: Table 5, D-Orn derivatives, His, Phe; read-out: IC50.
`CN(CCC[C@@H]1C(=O)N[C@@H](CCCNC(=N)N)C(=O)N[C@@H](Cc2ccc3ccccc3c2)C(=O)NCC(=O)N[C@H](Cc2ccc(O)cc2)C(=O)N1C)C(=O)c1ccc(F)cc1` [cyc[D-Tyr-(Me)D-Orn(Me,FB)-Arg-Nal-Gly]] (HELM PEPTIDE1{[O=C([C@H](Cc1ccc2ccccc2c1)N[*:1])[*:2]].G.[dY].[CN(CCC[C@H](C(=O)[*:2])N(C)[*:1])C(=O)c1ccc(F)cc1].R}$PEPTIDE1,PEPTIDE1,1:R1-5:R2$$$V2.0): the IC50 came to 59 nM. Same read-out and setting: the value for `N=C(N)NCCC[C@@H]1NC(=O)[C@H](Cc2c[nH]cn2)NC(=O)[C@@H](Cc2ccc(O)cc2)NC(=O)CNC(=O)[C@H](Cc2ccc3ccccc3c2)NC1=O` [cyc[D-Tyr-His-Arg-Nal-Gly]] (HELM PEPTIDE1{[O=C([C@H](Cc1ccc2ccccc2c1)N[*:1])[*:2]].G.[dY].H.R}$PEPTIDE1,PEPTIDE1,1:R1-5:R2$$$V2.0) was 30 nM.

The assay is the same for the next values; noted with them: Table 10, dimers and monomers; read-out: IC50.
Turning to `CN1C(=O)[C@@H](Cc2ccc(O)cc2)NC(=O)CNC(=O)[C@H](Cc2ccc3ccccc3c2)NC(=O)[C@H](CCCNC(=N)N)NC(=O)[C@H]1CCCNC(=O)CCCCCCCCCCCCCCC(=O)NCCC[C@@H]1C(=O)N[C@@H](CCCNC(=N)N)C(=O)N[C@@H](Cc2ccc3ccccc3c2)C(=O)NCC(=O)N[C@H](Cc2ccc(O)cc2)C(=O)N1C` [NMe-D-Orn n = 14] (I: cyclo([2Nal]G[dY][dNMeOrn]R) / II: cyclo([2Nal]G[dY][dNMeOrn]R); linker I:4-II:4 via C16 diacid (inferred); ring closure inferred), the IC50 was 33.5 nM.

As to `CN1C(=O)[C@@H](Cc2ccc(O)cc2)NC(=O)CNC(=O)[C@H](Cc2ccc3ccccc3c2)NC(=O)[C@H](CCCNC(=N)N)NC(=O)[C@H]1CCCNC(=O)CCC(=O)NCCC[C@@H]1C(=O)N[C@@H](CCCNC(=N)N)C(=O)N[C@@H](Cc2ccc3ccccc3c2)C(=O)NCC(=O)N[C@H](Cc2ccc(O)cc2)C(=O)N1C` [NMe-D-Orn n = 2] (I: cyclo([2Nal]G[dY][dNMeOrn]R) / II: cyclo([2Nal]G[dY][dNMeOrn]R); linker I:4-II:4 via Suc), the IC50 was 6.61 nM.

The values above are taken from patent US8614290B2, “Cancer imaging and treatment” (Technische Universitat Munchen, priority 2007, dated 2013).
